{
  "source": "patent US20250195553A1",
  "about": "“Use of Genipin-1-B-D-Gentiobioside in Preparation of Drug” (Guizhou Bailing Group Pharmaceutical Co., Ltd., priority 2023, published 2025)",
  "key": {"[1]": {"tested_on": "SARS-CoV-2", "test": "Virus titer in lung tissue homogenates of SARS-CoV-2 infected mice (TCID50 on VERO E6 cells)", "type": "in vivo, hACE2 transgenic C57BL/6 mice", "procedure": "2.1 Grouping and Drug Administration: hACE2 transgenic C57BL/6 mice were divided into four groups, namely the blank control group, the SARS-CoV-2 infection group, the Genipin-1-β-D-gentiobioside (37.5 mg/kg) treatment group, and the Genipin-1-β-D-gentiobioside (75 mg/kg) treatment group, with 8 mice in each group. Except for the normal group, which received intranasal administration of Phosphate Buffered Saline (PBS), the other groups were infected with 10^4 Plaque Forming Unit (PFU) of Severe Acute Respiratory Syndrome Coronavirus 2 (SARS-CoV-2) virus via intranasal instillation. Two hours' post-infection, the treatment groups received intraperitoneal injections of the drug once daily for 5 consecutive days. Mouse deaths were recorded daily after infection, and the 5-day mortality rate was calculated. At the end of the experiment, the lung tissues were collected and homogenized for virus titer detection. […]\nThe well-grown VERO E6 cells were inoculated into a 96-well plate at a density of 1×10^4 cells per well and cultured for another 24 hours. […] The number of wells showing CPE at each concentration gradient was recorded, and the Tissue Culture Infectious Dose 50% (TCID50) value for VERO E6 cells was calculated."}, "[2]": {"tested_on": "Lipopolysaccharide (LPS)-induced pneumonia model in mice", "test": "LPS-induced pneumonia model in mice, intravenous injection: lung index", "type": "in vivo, ICR mice", "details": "for Lung Index: 6 h after LPS", "procedure": "Sixty healthy mice, weighing 18˜20 g, half male and half female, were selected and randomly grouped after stratification by weight; they were divided into a normal control group, a model control group, three Genipin-1-β-D-gentiobioside dose groups (150 mg/kg/d, 75 mg/kg/d, 37.5 mg/kg/d), and a positive control drug Sivelestat Sodium 50 mg/kg/d group, with 10 mice in each group, half male and half female. After grouping, each treatment group was administered intravenously at 20 ml/kg once daily for 2 consecutive days, while the normal control group and model control group were injected with physiological saline. One hour after the second dose, except for the normal control group, the other groups were lightly anesthetized with isoflurane, and a 20 mg/ml LPS physiological saline solution was administered intranasally to the mice at 0.05 ml/mouse to induce the pneumonia model. Six hours after infection, the animals were sacrificed, dissected, and their lungs were removed and weighed to calculate the lung index (lung index=lung weight/body weight×100%)."}, "[3]": {"tested_on": "Human Coronavirus OC43 (HCoV-OC43)", "type": "in vivo", "details": "OC43"}, "[4]": {"tested_on": "Human Coronavirus OC43 (HCoV-OC43)", "type": "in vivo", "details": "4 days"}, "[5]": {"tested_on": "Human Coronavirus 229E (HCoV-229E)", "type": "in vivo", "details": "4 days"}, "[6]": {"tested_on": "Human Respiratory Syncytial Virus (RSV)", "test": "Mouse pneumonia model infected with RSV, nebulization: lung index", "type": "in vivo", "procedure": "[…] BALB/c mice, weighing 10±1 g, were randomly divided into four groups: a normal control group, a model control group, a high-dose Genipin-1-β-D-gentiobioside group (75 mg/ml), and a low-dose Genipin-1-β-D-gentiobioside group (37.5 mg/ml). Each group consisted of 10 mice, with an equal number of males and females. Except for the normal control group, all mice were lightly anesthetized with isoflurane and infected with respiratory syncytial virus (RSV) via intranasal administration, with each mouse receiving 35 μl of the virus. On the day of infection, the treatment groups began inhalation administration. Each group received nebulization for 25 minutes once daily for four consecutive days. The normal control group and the model control group received nebulized saline under the same conditions. On the fifth day, after weighing, the mice were sacrificed by cervical dislocation, and their lung tissues were dissected, weighed, and used to calculate the lung index and lung index inhibition rate. The lung tissues were also retained for virus load, pathological examination, and inflammatory factor detection. The results were statistically analyzed using the t-test for intergroup comparisons."}, "[7]": {"details": "37.5 mg/kg i.v. once daily 2 days"}, "[8]": {"details": "75 mg/kg i.v. once daily 2 days"}, "[9]": {"details": "150 mg/kg i.v. once daily 2 days"}, "[10]": {"details": "37.5 mg/ml nebulization 25 min once daily 4 days"}, "[11]": {"details": "75 mg/ml nebulization 25 min once daily 4 days"}},
  "note": "Where two headings read alike, the source gives them in different places.",
  "data": [
    {"compound": "COC(=O)C1=CO[C@@H](O[C@@H]2O[C@H](CO[C@@H]3O[C@H](CO)[C@@H](O)[C@H](O)[C@H]3O)[C@@H](O)[C@H](O)[C@H]2O)[C@@H]2C(CO)=CC[C@H]12", "note": "[Genipin-1-β-D-gentiobioside]", "values": [
      {"measurement": "Virus titer in the lung tissue vs model control group", "setting": "[1]; 37.5 mg/kg, P<0.05", "value": "significantly reduced the virus titer"},
      {"measurement": "Virus titer in the lung tissue vs model control group", "setting": "[1]; 75 mg/kg, P<0.01", "value": "significantly reduced the virus titer"},
      {"measurement": "Inhibition Rate (lung index)", "setting": "[2]; [7]", "value": 48.85},
      {"measurement": "Lung Index", "setting": "[2]; [7]", "value": "0.91 ± 0.09", "unit": "g/100 g body weight"},
      {"measurement": "Inhibition Rate (lung index)", "setting": "[2]; [8]", "value": 94.65},
      {"measurement": "Lung Index", "setting": "[2]; [8]", "value": "0.85 ± 0.14", "unit": "g/100 g body weight"},
      {"measurement": "Inhibition Rate (lung index)", "setting": "[2]; [9]", "value": 77.10},
      {"measurement": "Lung Index", "setting": "[2]; [9]", "value": "0.87 ± 0.01", "unit": "g/100 g body weight"},
      {"measurement": "Inhibition Rate (lung index)", "setting": "[3]; 37.5 mg/kg/d i.v. 4 days", "value": 41.59, "unit": "%"},
      {"measurement": "Lung Index", "setting": "[3]; 37.5 mg/kg/d i.v. 4 days", "value": "0.80 ± 0.08 g lung weight × 100 g/body weight"},
      {"measurement": "Inhibition Rate (lung index)", "setting": "[3]; 75 mg/kg/d i.v. 4 days", "value": 42.34, "unit": "%"},
      {"measurement": "Lung Index", "setting": "[3]; 75 mg/kg/d i.v. 4 days", "value": "0.80 ± 0.05 g lung weight × 100 g/body weight"},
      {"measurement": "Inhibition Rate (lung index)", "setting": "[3]; 150 mg/kg/d i.v. 4 days", "value": 39.93, "unit": "%"},
      {"measurement": "Lung Index", "setting": "[3]; 150 mg/kg/d i.v. 4 days", "value": "0.80 ± 0.07 g lung weight × 100 g/body weight"},
      {"measurement": "Inhibition Rate (lung index)", "setting": "[4]; 9.375 mg/ml inhalation 25 min", "value": 49.42, "unit": "%"},
      {"measurement": "Lung Index", "setting": "[4]; 9.375 mg/ml inhalation 25 min", "value": "0.79 ± 0.09 g lung weight × 100 g/body weight"},
      {"measurement": "Inhibition Rate (lung index)", "setting": "[4]; 18.75 mg/ml inhalation 25 min", "value": 75.73, "unit": "%"},
      {"measurement": "Lung Index", "setting": "[4]; 18.75 mg/ml inhalation 25 min", "value": "0.76 ± 0.04 g lung weight × 100 g/body weight"},
      {"measurement": "Inhibition Rate (lung index)", "setting": "[4]; 37.5 mg/ml inhalation 25 min", "value": 90.30, "unit": "%"},
      {"measurement": "Lung Index", "setting": "[4]; 37.5 mg/ml inhalation 25 min", "value": "0.74 ± 0.08 g lung weight × 100 g/body weight"},
      {"measurement": "Inhibition Rate (lung index)", "setting": "[4]; 75 mg/ml inhalation 25 min", "value": 102.88, "unit": "%"},
      {"measurement": "Lung Index", "setting": "[4]; 75 mg/ml inhalation 25 min", "value": "0.72 ± 0.05 g lung weight × 100 g/body weight"},
      {"measurement": "Inhibition Rate (lung index)", "setting": "[5]; 9.375 mg/ml inhalation 25 min", "value": 65.98, "unit": "%"},
      {"measurement": "Lung Index", "setting": "[5]; 9.375 mg/ml inhalation 25 min", "value": "0.77 ± 0.08 g lung weight × 100 g/body weight"},
      {"measurement": "Inhibition Rate (lung index)", "setting": "[5]; 18.75 mg/ml inhalation 25 min", "value": 65.59, "unit": "%"},
      {"measurement": "Lung Index", "setting": "[5]; 18.75 mg/ml inhalation 25 min", "value": "0.77 ± 0.08 g lung weight × 100 g/body weight"},
      {"measurement": "Inhibition Rate (lung index)", "setting": "[5]; 37.5 mg/ml inhalation 25 min", "value": 64.22, "unit": "%"},
      {"measurement": "Lung Index", "setting": "[5]; 37.5 mg/ml inhalation 25 min", "value": "0.77 ± 0.05 g lung weight × 100 g/body weight"},
      {"measurement": "Inhibition Rate (lung index)", "setting": "[5]; 75 mg/ml inhalation 25 min", "value": 109.19, "unit": "%"},
      {"measurement": "Lung Index", "setting": "[5]; 75 mg/ml inhalation 25 min", "value": "0.71 ± 0.05 g lung weight × 100 g/body weight"},
      {"measurement": "Inhibition Rate (lung index)", "setting": "[6]; [10]", "value": 68.79, "unit": "%"},
      {"measurement": "Lung Index", "setting": "[6]; [10]", "value": "0.70 ± 0.09 Lung weight/100 g body weight"},
      {"measurement": "Inhibition Rate (lung index)", "setting": "[6]; [11]", "value": 88.35, "unit": "%"},
      {"measurement": "Lung Index", "setting": "[6]; [11]", "value": "0.67 ± 014 Lung weight/100 g body weight"}
    ]}
  ]
}
